# Measurements as given in ChEMBL document CHEMBL1201862, “PubChem BioAssay data set” (2004).
#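 Test compounds were applied to cells in 96-well plates for 48 hours at 5 doses. GI50: concentration for 50% inhibition of growth.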 The source made the active and inactive calls. Rule as the data show it: active = GI50 up to about 1.1 µM and inactive = higher.
# How the values were obtained:
# Test in all cases: NCI tumour cell line growth inhibition, 48 h
# SK-MEL-5 = tested on: SK-MEL-5
# SF-268 = tested on: SF-268
# BT-549 = tested on: BT-549
# NCI-H226 = tested on: NCI-H226
# ACHN = tested on: ACHN
# OVCAR-3 = tested on: OVCAR-3
# LOX IMVI = tested on: LOX IMVI
# NCI-H522 = tested on: NCI-H522
# PC-3 = tested on: PC-3
# COLO 205 = tested on: COLO 205
# SK-MEL-28 = tested on: SK-MEL-28
# CCRF-CEM = tested on: CCRF-CEM
# SN12C = tested on: SN12C
# NCI-H23 = tested on: NCI-H23
# IGROV-1 = tested on: IGROV-1
# 786-0 = tested on: 786-0
# OVCAR-8 = tested on: OVCAR-8
# UACC-257 = tested on: UACC-257
# HCT-116 = tested on: HCT-116
# OVCAR-5 = tested on: OVCAR-5
# A549 = tested on: A549
# MOLT-4 = tested on: MOLT-4
# RPMI-8226 = tested on: RPMI-8226
# SK-OV-3 = tested on: SK-OV-3
# HOP-62 = tested on: HOP-62
# EKVX = tested on: EKVX
# NCI-H460 = tested on: NCI-H460
# KM12 = tested on: KM12
# SK-MEL-2 = tested on: SK-MEL-2
# RXF 393 = tested on: RXF 393
# SR = tested on: SR
# SNB-19 = tested on: SNB-19
# UACC-62 = tested on: UACC-62
# SNB-75 = tested on: SNB-75
# HOP-92 = tested on: HOP-92
# UO-31 = tested on: UO-31
# U-251 = tested on: U-251
# Hs-578T = tested on: Hs-578T
# MDA-MB-435 = tested on: MDA-MB-435
# MCF7 = tested on: MCF7
# Malme-3M = tested on: Malme-3M
# T47D = tested on: T47D
# SW-620 = tested on: SW-620
# NCI/ADR-RES = tested on: NCI/ADR-RES
# A498 = tested on: A498
# K562 = tested on: K562
# MDA-MB-231 = tested on: MDA-MB-231
# MDA-N = tested on: MDA-N
# DU-145 = tested on: DU-145
# SF-539 = tested on: SF-539
# HCT-15 = tested on: HCT-15
# HT-29 = tested on: HT-29
# SF-295 = tested on: SF-295
# TK-10 = tested on: TK-10
# M14 = tested on: M14
# OVCAR-4 = tested on: OVCAR-4
# HCC 2998 = tested on: HCC 2998
# HL-60 = tested on: HL-60
# CAKI-1 = tested on: CAKI-1
compound,measurement,setting,value
COc1cccc2cc(C(=O)Nc3ccccc3)c(=N)oc12,GI50,SK-MEL-5,> 81.3 µM (inactive)
same,GI50,SF-268,> 85.9 µM (inactive)
same,GI50,BT-549,> 100 µM (inactive)
same,GI50,NCI-H226,> 100 µM (inactive)
same,GI50,ACHN,> 100 µM (inactive)
same,GI50,OVCAR-3,> 100 µM (inactive)
same,GI50,LOX IMVI,> 100 µM (inactive)
same,GI50,NCI-H522,> 28.2 µM (inactive)
same,GI50,PC-3,> 100 µM (inactive)
same,GI50,COLO 205,> 100 µM (inactive)
same,GI50,SK-MEL-28,> 100 µM (inactive)
same,GI50,CCRF-CEM,> 21.8 µM (inactive)
same,GI50,SN12C,> 100 µM (inactive)
same,GI50,NCI-H23,> 69.2 µM (inactive)
same,GI50,IGROV-1,49.5 µM (inactive)
same,GI50,786-0,15.7 µM (inactive)
same,GI50,OVCAR-8,> 46.6 µM (inactive)
same,GI50,UACC-257,> 100 µM (inactive)
same,GI50,HCT-116,24.3 µM (inactive)
same,GI50,OVCAR-5,> 100 µM (inactive)
same,GI50,A549,> 100 µM (inactive)
same,GI50,MOLT-4,> 100 µM (inactive)
same,GI50,RPMI-8226,> 100 µM (inactive)
same,GI50,SK-OV-3,> 64 µM (inactive)
same,GI50,HOP-62,> 58.5 µM (inactive)
same,GI50,EKVX,> 100 µM (inactive)
same,GI50,NCI-H460,> 100 µM (inactive)
same,GI50,KM12,> 29.6 µM (inactive)
same,GI50,SK-MEL-2,> 100 µM (inactive)
same,GI50,RXF 393,> 100 µM (inactive)
same,GI50,SR,> 71 µM (inactive)
same,GI50,SNB-19,> 75.9 µM (inactive)
same,GI50,UACC-62,62.4 µM (inactive)
same,GI50,SNB-75,16.7 µM (inactive)
same,GI50,HOP-92,22.2 µM (inactive)
same,GI50,UO-31,> 48.1 µM (inactive)
same,GI50,U-251,67.6 µM (inactive)
same,GI50,Hs-578T,10.4 µM (inactive)
same,GI50,MDA-MB-435,> 100 µM (inactive)
same,GI50,MCF7,5.93 µM (inactive)
same,GI50,Malme-3M,> 100 µM (inactive)
same,GI50,T47D,6.01 µM (inactive)
same,GI50,SW-620,> 100 µM (inactive)
same,GI50,NCI/ADR-RES,> 100 µM (inactive)
same,GI50,A498,> 100 µM (inactive)
same,GI50,K562,> 100 µM (inactive)
same,GI50,MDA-MB-231,13 µM (inactive)
same,GI50,MDA-N,> 100 µM (inactive)
same,GI50,DU-145,> 100 µM (inactive)
same,GI50,SF-539,> 100 µM (inactive)
same,GI50,HCT-15,> 100 µM
same,GI50,HT-29,> 100 µM (inactive)
same,GI50,SF-295,> 100 µM (inactive)
same,GI50,TK-10,> 100 µM (inactive)
same,GI50,M14,> 100 µM (inactive)
same,GI50,OVCAR-4,> 100 µM (inactive)
COC1=C(Br)[C@H](O)[C@@]2(C=C1Br)CC(C(=O)NCCCCCNC(=N)N)=NO2 [APLYSINAMISINE II],GI50,SK-MEL-5,> 10 µM (inactive)
same,GI50,SF-268,> 10 µM (inactive)
same,GI50,BT-549,> 10 µM (inactive)
same,GI50,HCC 2998,> 10 µM (inactive)
same,GI50,NCI-H226,> 10 µM (inactive)
same,GI50,ACHN,> 10 µM (inactive)
same,GI50,OVCAR-3,> 10 µM (inactive)
same,GI50,LOX IMVI,> 10 µM (inactive)
same,GI50,NCI-H522,> 10 µM (inactive)
same,GI50,PC-3,> 10 µM (inactive)
same,GI50,COLO 205,> 10 µM (inactive)
same,GI50,SK-MEL-28,> 10 µM (inactive)
same,GI50,CCRF-CEM,> 10 µM (inactive)
same,GI50,SN12C,> 10 µM (inactive)
same,GI50,NCI-H23,> 10 µM (inactive)
same,GI50,IGROV-1,> 10 µM (inactive)
same,GI50,786-0,> 10 µM (inactive)
same,GI50,OVCAR-8,> 10 µM (inactive)
same,GI50,UACC-257,> 10 µM (inactive)
same,GI50,HCT-116,> 10 µM (inactive)
same,GI50,OVCAR-5,> 10 µM (inactive)
same,GI50,A549,> 10 µM (inactive)
same,GI50,MOLT-4,> 10 µM (inactive)
same,GI50,RPMI-8226,> 10 µM (inactive)
same,GI50,SK-OV-3,> 10 µM (inactive)
same,GI50,HOP-62,> 10 µM (inactive)
same,GI50,NCI-H460,> 10 µM (inactive)
same,GI50,KM12,> 10 µM (inactive)
same,GI50,SK-MEL-2,> 10 µM (inactive)
same,GI50,RXF 393,> 10 µM (inactive)
same,GI50,SR,6.87 µM (inactive)
same,GI50,SNB-19,> 10 µM (inactive)
same,GI50,UACC-62,> 10 µM (inactive)
same,GI50,SNB-75,6.79 µM (inactive)
same,GI50,UO-31,> 10 µM (inactive)
same,GI50,U-251,> 10 µM (inactive)
same,GI50,Hs-578T,> 10 µM (inactive)
same,GI50,MDA-MB-435,> 10 µM (inactive)
same,GI50,MCF7,> 10 µM (inactive)
same,GI50,Malme-3M,> 10 µM (inactive)
same,GI50,T47D,> 10 µM (inactive)
same,GI50,HL-60,> 10 µM (inactive)
same,GI50,SW-620,> 10 µM (inactive)
same,GI50,NCI/ADR-RES,> 10 µM (inactive)
same,GI50,A498,> 10 µM (inactive)
same,GI50,K562,> 10 µM (inactive)
same,GI50,MDA-MB-231,> 10 µM (inactive)
same,GI50,MDA-N,> 10 µM (inactive)
same,GI50,DU-145,> 10 µM (inactive)
same,GI50,SF-539,> 10 µM (inactive)
same,GI50,HCT-15,> 10 µM
same,GI50,HT-29,> 10 µM (inactive)
same,GI50,SF-295,> 10 µM (inactive)
same,GI50,TK-10,> 10 µM (inactive)
same,GI50,M14,> 10 µM (inactive)
same,GI50,OVCAR-4,> 10 µM (inactive)
COc1ccc(-n2c(C)nc3ccc(NC4OCC(OC(C)=O)C(OC(C)=O)C4OC(C)=O)cc3c2=O)cc1 (stereo not given),GI50,SK-MEL-5,> 100 µM (inactive)
same,GI50,SF-268,> 100 µM (inactive)
same,GI50,BT-549,> 100 µM (inactive)
same,GI50,HCC 2998,97.1 µM (inactive)
same,GI50,NCI-H226,> 100 µM (inactive)
same,GI50,ACHN,> 100 µM (inactive)
same,GI50,OVCAR-3,> 100 µM (inactive)
same,GI50,LOX IMVI,> 100 µM (inactive)
same,GI50,NCI-H522,> 100 µM (inactive)
same,GI50,PC-3,> 100 µM (inactive)
same,GI50,COLO 205,> 100 µM (inactive)
same,GI50,SK-MEL-28,> 100 µM (inactive)
same,GI50,SN12C,> 100 µM (inactive)
same,GI50,NCI-H23,> 100 µM (inactive)
same,GI50,IGROV-1,> 100 µM (inactive)
same,GI50,786-0,> 100 µM (inactive)
same,GI50,OVCAR-8,> 100 µM (inactive)
same,GI50,UACC-257,> 100 µM (inactive)
same,GI50,HCT-116,> 100 µM (inactive)
same,GI50,OVCAR-5,> 100 µM (inactive)
same,GI50,MOLT-4,> 100 µM (inactive)
same,GI50,RPMI-8226,35.9 µM (inactive)
same,GI50,HOP-62,> 100 µM (inactive)
same,GI50,EKVX,> 100 µM (inactive)
same,GI50,NCI-H460,> 100 µM (inactive)
same,GI50,KM12,> 100 µM (inactive)
same,GI50,SK-MEL-2,> 100 µM (inactive)
same,GI50,RXF 393,> 100 µM (inactive)
same,GI50,SR,> 100 µM (inactive)
same,GI50,SNB-19,> 100 µM (inactive)
same,GI50,UACC-62,> 100 µM (inactive)
same,GI50,SNB-75,> 100 µM (inactive)
same,GI50,UO-31,> 100 µM (inactive)
same,GI50,U-251,> 100 µM (inactive)
same,GI50,CAKI-1,> 100 µM (inactive)
same,GI50,Hs-578T,> 100 µM (inactive)
same,GI50,MDA-MB-435,> 100 µM (inactive)
same,GI50,MCF7,> 100 µM (inactive)
same,GI50,Malme-3M,> 100 µM (inactive)
same,GI50,T47D,> 100 µM (inactive)
same,GI50,HL-60,32.4 µM (inactive)
same,GI50,SW-620,> 100 µM (inactive)
same,GI50,NCI/ADR-RES,> 100 µM (inactive)
same,GI50,A498,> 100 µM (inactive)
same,GI50,K562,> 100 µM (inactive)
same,GI50,MDA-MB-231,> 100 µM (inactive)
same,GI50,MDA-N,> 100 µM (inactive)
same,GI50,DU-145,> 100 µM (inactive)
same,GI50,HCT-15,> 100 µM
same,GI50,HT-29,> 100 µM (inactive)
same,GI50,SF-295,> 100 µM (inactive)
same,GI50,TK-10,> 100 µM (inactive)
same,GI50,OVCAR-4,> 100 µM (inactive)
